Measured values taken from ChEMBL document CHEMBL5465560, “Selectivity Literature for EUbOPEN Chemogenomic Library” (2024).

Assays:
[1] = target: Serine/threonine-protein kinase 35 (Homo sapiens) (UniProt Q8TDR2); test: Selectivity interaction (KinomeScan (DiscoverX)) EUB0000229b STK35; conditions: at 10 µM
[2] = target: Phosphatidylinositol 4-kinase beta (Homo sapiens, UniProt Q9UBF8); test: Selectivity interaction (KinomeScan (DiscoverX)) EUB0001619a PI4KB; conditions: at 1 µM
[3] = target: T1, Tyrosine-protein kinase Mer (Homo sapiens) (UniProt Q12866); test: Selectivity interaction (KinomeScan (DiscoverX)) EUB0000618a MERTK; conditions: at 10 µM
T1 sequence (whole entry): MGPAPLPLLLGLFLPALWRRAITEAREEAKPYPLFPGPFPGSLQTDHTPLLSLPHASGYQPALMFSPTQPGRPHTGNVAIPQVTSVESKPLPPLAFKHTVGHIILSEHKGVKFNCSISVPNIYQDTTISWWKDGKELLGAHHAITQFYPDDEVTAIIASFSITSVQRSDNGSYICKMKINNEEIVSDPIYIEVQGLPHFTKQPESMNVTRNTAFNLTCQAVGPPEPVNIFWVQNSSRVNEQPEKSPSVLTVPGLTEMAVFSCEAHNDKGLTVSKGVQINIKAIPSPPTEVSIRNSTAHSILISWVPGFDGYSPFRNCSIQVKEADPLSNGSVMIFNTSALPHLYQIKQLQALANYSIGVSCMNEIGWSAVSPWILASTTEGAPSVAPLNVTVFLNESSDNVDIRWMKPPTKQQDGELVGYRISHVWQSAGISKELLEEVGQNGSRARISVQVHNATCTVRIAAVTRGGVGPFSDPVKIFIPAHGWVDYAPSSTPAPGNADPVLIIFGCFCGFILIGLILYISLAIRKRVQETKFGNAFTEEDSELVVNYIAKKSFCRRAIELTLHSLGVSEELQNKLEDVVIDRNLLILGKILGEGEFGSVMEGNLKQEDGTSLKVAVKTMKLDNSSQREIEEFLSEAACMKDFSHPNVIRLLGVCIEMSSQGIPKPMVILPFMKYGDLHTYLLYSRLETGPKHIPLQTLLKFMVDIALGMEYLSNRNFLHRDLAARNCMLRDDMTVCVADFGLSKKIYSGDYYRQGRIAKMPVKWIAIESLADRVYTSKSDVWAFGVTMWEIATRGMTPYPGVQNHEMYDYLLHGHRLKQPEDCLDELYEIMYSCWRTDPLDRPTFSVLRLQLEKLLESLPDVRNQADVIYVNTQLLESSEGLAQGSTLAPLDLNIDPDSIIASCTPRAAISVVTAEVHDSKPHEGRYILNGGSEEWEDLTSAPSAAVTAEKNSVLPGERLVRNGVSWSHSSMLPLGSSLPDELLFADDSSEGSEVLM

[4] = target: T2, Dual specificity mitogen-activated protein kinase kinase 7 (Homo sapiens) (UniProt O14733); test: Selectivity interaction (ActivX KiNativ screen (kinase selectivity in THP-1 cell lysates)) EUB0000639a MAP2K7; assay type: subcellular; conditions: lysate
T2 sequence (whole entry): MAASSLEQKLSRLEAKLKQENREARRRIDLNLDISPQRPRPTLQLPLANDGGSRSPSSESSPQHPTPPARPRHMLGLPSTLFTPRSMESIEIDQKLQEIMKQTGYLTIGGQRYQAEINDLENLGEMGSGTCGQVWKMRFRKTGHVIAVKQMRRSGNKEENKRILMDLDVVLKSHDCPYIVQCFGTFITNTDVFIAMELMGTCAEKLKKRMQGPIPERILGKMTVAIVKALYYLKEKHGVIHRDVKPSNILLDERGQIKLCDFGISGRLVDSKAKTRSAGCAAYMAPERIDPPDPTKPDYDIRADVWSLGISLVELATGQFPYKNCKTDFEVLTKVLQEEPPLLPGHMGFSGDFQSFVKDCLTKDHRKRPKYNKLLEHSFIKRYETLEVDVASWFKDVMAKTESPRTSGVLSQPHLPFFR

[5] = target: RAC-alpha serine/threonine-protein kinase (Homo sapiens, UniProt P31749); conditions: at 10 µM
[6] = system: Proto-oncogene tyrosine-protein kinase receptor Ret (Homo sapiens), P07949 [V804M]; test: (§1) Selectivity interaction (KinomeScan (DiscoverX)) EUB0000092b RET; conditions: at 10 µM
[7] = system: Proto-oncogene tyrosine-protein kinase receptor Ret (Homo sapiens), P07949 [M918T]; test: as §1; conditions: at 10 µM
[8] = system: Proto-oncogene tyrosine-protein kinase receptor Ret (Homo sapiens), P07949 [V804L]; test: as §1; conditions: at 10 µM
[9] = target: Proto-oncogene tyrosine-protein kinase receptor Ret (Homo sapiens, UniProt P07949); test: as §1; conditions: at 10 µM
[10] = target: Fibroblast growth factor receptor 2 (Homo sapiens) (UniProt P21802); test: Selectivity interaction (KinomeScan (DiscoverX)) EUB0000092b FGFR2; conditions: at 10 µM
[11] = target: T3, Cytoplasmic tyrosine-protein kinase BMX (Homo sapiens) (UniProt P51813); test: Selectivity interaction (Ambit KINOMEscan and KiNATiv profiling in Jurkat cells) EUB0000090b BMX; assay type: cell-based; conditions: at 1 µM
T3 sequence (whole entry): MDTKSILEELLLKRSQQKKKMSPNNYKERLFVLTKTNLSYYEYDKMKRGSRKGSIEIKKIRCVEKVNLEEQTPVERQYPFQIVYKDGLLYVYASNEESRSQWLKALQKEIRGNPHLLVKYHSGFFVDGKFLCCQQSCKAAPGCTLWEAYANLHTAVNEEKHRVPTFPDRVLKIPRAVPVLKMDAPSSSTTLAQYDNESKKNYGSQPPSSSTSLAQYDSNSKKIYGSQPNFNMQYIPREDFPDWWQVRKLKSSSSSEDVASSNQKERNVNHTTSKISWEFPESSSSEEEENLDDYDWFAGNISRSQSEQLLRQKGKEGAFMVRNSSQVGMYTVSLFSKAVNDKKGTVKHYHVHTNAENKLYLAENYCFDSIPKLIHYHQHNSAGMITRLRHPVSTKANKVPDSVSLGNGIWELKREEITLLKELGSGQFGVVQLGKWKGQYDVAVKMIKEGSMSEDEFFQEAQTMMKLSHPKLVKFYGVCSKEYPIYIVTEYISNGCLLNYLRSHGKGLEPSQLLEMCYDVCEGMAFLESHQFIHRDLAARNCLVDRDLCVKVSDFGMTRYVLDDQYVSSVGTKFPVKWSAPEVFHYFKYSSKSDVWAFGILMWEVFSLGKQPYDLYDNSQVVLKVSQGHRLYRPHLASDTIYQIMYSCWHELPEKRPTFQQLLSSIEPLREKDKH

RAC-alpha serine/threonine-protein kinase, sequence (P31749 whole entry): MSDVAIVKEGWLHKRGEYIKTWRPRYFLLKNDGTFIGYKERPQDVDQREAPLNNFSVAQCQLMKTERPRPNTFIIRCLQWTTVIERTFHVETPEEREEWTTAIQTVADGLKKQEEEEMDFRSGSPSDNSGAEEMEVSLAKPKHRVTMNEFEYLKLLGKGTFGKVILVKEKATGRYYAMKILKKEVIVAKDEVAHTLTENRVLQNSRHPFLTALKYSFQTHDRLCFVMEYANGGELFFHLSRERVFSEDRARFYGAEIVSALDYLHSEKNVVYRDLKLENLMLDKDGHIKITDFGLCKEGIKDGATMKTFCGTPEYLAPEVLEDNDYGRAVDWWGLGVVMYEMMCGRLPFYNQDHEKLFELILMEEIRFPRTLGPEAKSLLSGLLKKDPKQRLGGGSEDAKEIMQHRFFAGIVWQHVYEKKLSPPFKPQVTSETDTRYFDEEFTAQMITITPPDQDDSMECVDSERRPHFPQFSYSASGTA
Fibroblast growth factor receptor 2 (Homo sapiens), sequence (P21802 22-821 limits assumed): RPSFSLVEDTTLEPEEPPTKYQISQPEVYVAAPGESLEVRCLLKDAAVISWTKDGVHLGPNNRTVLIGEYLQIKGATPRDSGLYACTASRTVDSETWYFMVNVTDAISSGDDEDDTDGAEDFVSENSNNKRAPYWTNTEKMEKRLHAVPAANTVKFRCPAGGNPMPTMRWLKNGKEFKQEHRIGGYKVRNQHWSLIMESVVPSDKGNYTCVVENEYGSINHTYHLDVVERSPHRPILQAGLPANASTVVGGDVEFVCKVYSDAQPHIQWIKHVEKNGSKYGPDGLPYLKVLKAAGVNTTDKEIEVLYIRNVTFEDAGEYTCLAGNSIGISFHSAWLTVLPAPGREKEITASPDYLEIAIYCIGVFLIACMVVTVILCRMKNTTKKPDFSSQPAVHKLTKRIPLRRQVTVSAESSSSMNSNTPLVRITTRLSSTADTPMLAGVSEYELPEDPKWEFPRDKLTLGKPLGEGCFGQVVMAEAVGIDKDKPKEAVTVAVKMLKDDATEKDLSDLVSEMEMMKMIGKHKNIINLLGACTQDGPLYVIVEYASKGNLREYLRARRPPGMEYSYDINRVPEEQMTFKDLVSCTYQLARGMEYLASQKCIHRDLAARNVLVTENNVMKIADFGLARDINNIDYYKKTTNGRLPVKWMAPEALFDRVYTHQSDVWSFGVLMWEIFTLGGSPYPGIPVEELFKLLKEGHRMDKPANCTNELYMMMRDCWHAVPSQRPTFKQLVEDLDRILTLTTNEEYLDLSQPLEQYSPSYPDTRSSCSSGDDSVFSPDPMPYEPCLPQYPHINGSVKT
Proto-oncogene tyrosine-protein kinase receptor Ret (Homo sapiens), P07949 [M918T], sequence (P07949 whole entry M918T): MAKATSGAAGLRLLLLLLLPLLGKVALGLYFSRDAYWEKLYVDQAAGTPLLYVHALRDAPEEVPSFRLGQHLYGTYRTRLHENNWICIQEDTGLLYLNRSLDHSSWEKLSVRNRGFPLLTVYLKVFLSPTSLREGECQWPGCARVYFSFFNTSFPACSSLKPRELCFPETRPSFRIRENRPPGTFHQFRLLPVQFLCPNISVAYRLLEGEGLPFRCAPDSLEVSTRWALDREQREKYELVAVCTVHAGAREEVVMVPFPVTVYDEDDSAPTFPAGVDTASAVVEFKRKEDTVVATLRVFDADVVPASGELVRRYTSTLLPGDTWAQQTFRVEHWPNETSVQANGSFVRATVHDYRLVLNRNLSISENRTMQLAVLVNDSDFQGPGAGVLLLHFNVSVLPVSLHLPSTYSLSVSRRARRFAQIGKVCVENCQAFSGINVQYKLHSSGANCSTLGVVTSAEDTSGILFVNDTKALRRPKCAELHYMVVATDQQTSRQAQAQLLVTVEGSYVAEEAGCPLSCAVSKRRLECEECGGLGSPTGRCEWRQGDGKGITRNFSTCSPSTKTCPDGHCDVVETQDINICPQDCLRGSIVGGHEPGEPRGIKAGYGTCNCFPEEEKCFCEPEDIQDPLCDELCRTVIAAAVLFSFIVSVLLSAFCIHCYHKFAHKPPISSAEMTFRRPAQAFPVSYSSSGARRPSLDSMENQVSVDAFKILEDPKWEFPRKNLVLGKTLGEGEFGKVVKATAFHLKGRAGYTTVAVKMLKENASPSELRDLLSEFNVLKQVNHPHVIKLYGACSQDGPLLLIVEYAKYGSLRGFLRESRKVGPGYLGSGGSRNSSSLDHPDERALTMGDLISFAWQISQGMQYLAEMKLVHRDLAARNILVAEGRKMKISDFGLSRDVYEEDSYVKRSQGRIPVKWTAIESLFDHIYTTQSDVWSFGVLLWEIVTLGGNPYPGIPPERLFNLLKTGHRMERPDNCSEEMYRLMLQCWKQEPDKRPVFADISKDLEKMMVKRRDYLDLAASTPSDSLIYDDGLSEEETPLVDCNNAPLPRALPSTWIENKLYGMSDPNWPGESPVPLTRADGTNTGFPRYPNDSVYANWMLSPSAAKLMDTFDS
Proto-oncogene tyrosine-protein kinase receptor Ret (Homo sapiens), P07949 [V804M], sequence (P07949 whole entry V804M): as the sequence (P07949 whole entry M918T) above, with V804M, T918M counted along it
Proto-oncogene tyrosine-protein kinase receptor Ret (Homo sapiens), P07949 [V804L], sequence (P07949 whole entry V804L): as the sequence (P07949 whole entry M918T) above, with V804L, T918M counted along it
Serine/threonine-protein kinase 35 (Homo sapiens), sequence (Q8TDR2 whole entry): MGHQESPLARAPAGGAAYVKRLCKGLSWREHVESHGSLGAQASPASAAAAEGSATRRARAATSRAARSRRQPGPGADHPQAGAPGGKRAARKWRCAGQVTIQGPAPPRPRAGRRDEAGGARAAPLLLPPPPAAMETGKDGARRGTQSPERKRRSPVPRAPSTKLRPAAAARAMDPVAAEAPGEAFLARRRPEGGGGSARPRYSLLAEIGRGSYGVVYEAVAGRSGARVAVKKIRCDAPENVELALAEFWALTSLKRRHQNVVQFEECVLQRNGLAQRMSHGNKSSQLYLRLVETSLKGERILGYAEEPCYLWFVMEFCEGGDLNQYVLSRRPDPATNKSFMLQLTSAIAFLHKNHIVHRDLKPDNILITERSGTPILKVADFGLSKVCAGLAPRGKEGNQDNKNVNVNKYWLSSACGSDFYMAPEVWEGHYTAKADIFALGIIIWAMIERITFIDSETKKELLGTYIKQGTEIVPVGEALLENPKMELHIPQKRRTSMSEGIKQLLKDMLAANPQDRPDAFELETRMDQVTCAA
Phosphatidylinositol 4-kinase beta, sequence (Q9UBF8 2-816 limits assumed): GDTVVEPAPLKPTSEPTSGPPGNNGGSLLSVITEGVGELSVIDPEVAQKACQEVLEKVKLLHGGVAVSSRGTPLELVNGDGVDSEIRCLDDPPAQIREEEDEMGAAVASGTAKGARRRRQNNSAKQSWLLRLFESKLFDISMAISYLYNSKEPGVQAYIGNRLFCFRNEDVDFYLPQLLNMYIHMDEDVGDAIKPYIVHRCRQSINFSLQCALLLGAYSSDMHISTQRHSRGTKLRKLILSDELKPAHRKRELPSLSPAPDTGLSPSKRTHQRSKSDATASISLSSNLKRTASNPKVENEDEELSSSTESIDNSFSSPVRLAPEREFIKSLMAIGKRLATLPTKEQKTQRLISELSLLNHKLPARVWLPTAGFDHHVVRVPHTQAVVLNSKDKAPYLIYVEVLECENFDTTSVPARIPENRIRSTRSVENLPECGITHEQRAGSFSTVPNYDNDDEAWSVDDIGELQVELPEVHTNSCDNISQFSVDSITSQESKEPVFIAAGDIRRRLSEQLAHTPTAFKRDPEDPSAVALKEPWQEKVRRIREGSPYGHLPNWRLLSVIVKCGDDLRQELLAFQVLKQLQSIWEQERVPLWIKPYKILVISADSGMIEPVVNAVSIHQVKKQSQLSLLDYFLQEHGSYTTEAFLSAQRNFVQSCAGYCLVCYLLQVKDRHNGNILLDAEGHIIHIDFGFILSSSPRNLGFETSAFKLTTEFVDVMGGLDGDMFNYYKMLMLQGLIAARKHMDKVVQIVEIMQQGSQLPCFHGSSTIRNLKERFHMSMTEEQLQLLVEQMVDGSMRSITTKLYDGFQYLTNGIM
Proto-oncogene tyrosine-protein kinase receptor Ret, sequence (P07949 whole entry): as the sequence (P07949 whole entry M918T) above, with T918M counted along it

SMILES: COc1cc(N(C)c2ccnc3ccc(C(F)(F)F)cc23)cc(OC)c1OC
- % binding [1]: 90%

SMILES: N#Cc1cccc(-c2c[nH]c3ncnc(N4CCOCC4)c23)c1
- % of control [2]: 71%

SMILES: O[C@H]1CC[C@H](Nc2ncc3nc(Nc4c(F)cc(F)cc4F)n([C@H]4CCOC4)c3n2)CC1
- % of control [3]: 17%

SMILES: CC[C@@H]1[C@H](F)C(=O)N[C@@H]1COc1nccc2cc(C(N)=O)c(OC)cc12 [ZIMLOVISERTIB]
- % of inhibition ([4]; at 0.01 µM): 7.8%
- % of inhibition ([4]; at 0.04 µM): 0.6%
- % of inhibition ([4]; at 0.2 µM): 2.5%
- % of inhibition ([4]; at 1 µM): 2.2%
- % of inhibition ([4]; at 5 µM): -7.1%

SMILES: CCN(CC)CCCCNc1ncc2cc(-c3cc(OC)cc(OC)c3)c(NC(=O)NC(C)(C)C)nc2n1
- % of control [5]: 100%

SMILES: CCC(=O)N1CCN(c2ccc(-n3c(=O)ccc4cnc5ccc(-c6cnc7ccccc7c6)cc5c43)cc2C(F)(F)F)CC1
- % of control [6]: 69%
- % of control [7]: 51%
- % of control [8]: 66%
- % of control [9]: 44%
- % of control [10]: 55%

SMILES: CN(C)C/C=C/C(=O)Nc1ccc(C(=O)N2CCCC(Nc3ncc(Cl)c(-c4c[nH]c5ccccc45)n3)C2)cc1 (stereo not given)
- % of control [11]: 95%
